Columns and labels:
[1] = human, in vivo
[2] = patients taking lapatinib; cited from earlier work

In the case of `CCOc1ccc(-c2cc(C)cn2-c2ccc(S(N)(=O)=O)cc2)cc1` [2-(4-ethoxyphenyl)-4-methyl-1-(4-sulfamoylphenyl)-pyrrole], the “gastric or duodenal toxicity” value [1] is reported as “no increase in gastric or duodenal toxicity”.

For `CS(=O)(=O)CCNCc1ccc(-c2ccc3ncnc(Nc4ccc(OCc5cccc(F)c5)c(Cl)c4)c3c2)o1` [Lapatinib, N-(3-chloro-4-{[(3-fluorophenyl)methyl]oxy}phenyl)-6-[5-({[2-methylsulfonyl)ethyl]amino}methyl)-2-furanyl]-4-quinazolinamine bis(4-methylbenzenesulfonate) monohydrate, bis(4-methylbenzenesulfonate) …], the “patients with common side effects (rash, diarrhea, fatigue, palmar plantar erythrodysesthesia, nausea and vomiting)” value [2] is listed as “greater than 20 % of patients”.

From patent US20110306572A1, “COMBINATION THERAPY FOR THE TREATMENT OF CANCER USING COX-2 INHIBITORS AND DUAL InHIBITORS OF EGFR [ErbB1] AND HER-2 [ErbB2]” (TRAGARA PHARMACEUTICALS, INC, priority 2007, published 2011)
